We go through 3 compounds from patent US20260124309A1, “STAT6 DEGRADERS AND USES THEREOF” (Kymera Therapeutics, Inc., priority 2023, published 2026).

For one assay, the target named is T1, STAT6 (Homo sapiens, UniProt P42226).
T1 construct: endogenous in cells; host or cells: A549
T1 sequence (P42226 1-847): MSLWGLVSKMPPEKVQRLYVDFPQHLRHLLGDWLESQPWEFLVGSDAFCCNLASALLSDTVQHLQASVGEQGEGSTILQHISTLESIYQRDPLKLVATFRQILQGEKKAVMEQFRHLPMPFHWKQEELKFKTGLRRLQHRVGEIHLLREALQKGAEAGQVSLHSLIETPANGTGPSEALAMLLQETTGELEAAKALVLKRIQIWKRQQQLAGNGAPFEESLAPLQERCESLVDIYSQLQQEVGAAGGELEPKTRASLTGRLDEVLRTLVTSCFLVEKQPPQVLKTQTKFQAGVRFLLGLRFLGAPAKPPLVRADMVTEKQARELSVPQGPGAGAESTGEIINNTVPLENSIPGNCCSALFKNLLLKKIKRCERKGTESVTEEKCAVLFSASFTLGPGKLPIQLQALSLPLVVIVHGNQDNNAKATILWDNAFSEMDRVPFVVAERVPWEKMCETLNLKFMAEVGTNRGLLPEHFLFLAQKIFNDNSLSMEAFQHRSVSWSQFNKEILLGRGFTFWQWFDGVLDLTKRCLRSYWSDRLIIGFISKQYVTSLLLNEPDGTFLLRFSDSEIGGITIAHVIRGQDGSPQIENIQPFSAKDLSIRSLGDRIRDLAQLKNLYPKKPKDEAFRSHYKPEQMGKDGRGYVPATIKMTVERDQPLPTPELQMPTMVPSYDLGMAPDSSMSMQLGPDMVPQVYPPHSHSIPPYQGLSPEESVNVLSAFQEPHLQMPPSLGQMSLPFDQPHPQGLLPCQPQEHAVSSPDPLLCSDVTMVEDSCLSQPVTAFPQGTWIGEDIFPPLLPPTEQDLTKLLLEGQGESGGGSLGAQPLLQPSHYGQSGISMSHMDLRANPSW
In words: STAT6 MSD degradation in A549 cells. It counts as cell-based. The settings on record: 24 h. On the procedure: Degradation of STAT6 in cells was quantitatively measured using Meso Scale Discovery (MSD) technology. A549 cells were seeded in 96-well plates with a density of 1.5×10e4 to 5×10e5 cells per well in 100 μl fresh media. Compounds were then added to the assay plates with a final top concentration of up to 10 uM in a 1:3 dilution series with total of 9 doses. The assay plates were then incubated for 4 to 24 hours at 37° C. under 5% CO2. The assay plates were then centrifuged for 5 minutes and the cell pellets were treated with 100 μl/well RIPA lysis buffer (Boston Bioproducts, BP-115D) with protease and phosphatase inhibitors (Roche, 05892791001 and 04906837001). To prepare the MSD assay plates (MSD, L15XA), the plates were coated with the capture antibody (Abnova, H00006778) in PBS, at 40 μl/well. The plates were then incubated overnight at 4° C., washed 1 time with 150 μl/well TBST buffer (Cell Signaling Technology, #9997S) and blocked with 150 μl/well blocking buffer (MSD, R93BA-4). Cell lysates were then added to MSD assay plates and the plates were incubated at room temperature for 1 hour. The plates were then washed 3 times with 150 μl/well TBST buffer and 25 μl/well primary detection antibody (Cell Signaling Technology, #5397S). The assay plates were then incubated at room temperature for 1 hour, washed 3 times with 150 μl/well TBST buffer, and 25 μl/well secondary detection antibody, SULFO-TAG anti-rabbit antibody (MSD, R32AB-1) were added. The assay plates were then incubated at room temperature for 1 hour, washed 3 times with 150 μl/well TBST buffer, and 150 μl/well MSD reading buffer (MSD, R92TC-2) were added. The plates were then analyzed by an MSD reader. The data was analyzed by GraphPad Prism and the dose dependent STAT6 degradation was fit using the four-parameter inhibitor vs. response nonlinear regression.
The letter codes for DC50 (nM) include: A (<1 nM); B (1-10 nM); C (>10-100 nM); D (>100-1000 nM); E (>1000 nM); and F (not tested). The letter codes for Dmax (oo) include: A (>90%); B (>70-90%); C (>50-70%); D ([…]); and F (not tested).

The target in assay [1] is T2, biotinylated truncated STAT6 (123-632)-avi (Homo sapiens, UniProt P42226).
T2 construct: biotinylated truncated STAT6 (123-632)-avi purified from E. coli; made in house; host or cells: E. coli
T2 sequence (P42226 123-632 limits assumed): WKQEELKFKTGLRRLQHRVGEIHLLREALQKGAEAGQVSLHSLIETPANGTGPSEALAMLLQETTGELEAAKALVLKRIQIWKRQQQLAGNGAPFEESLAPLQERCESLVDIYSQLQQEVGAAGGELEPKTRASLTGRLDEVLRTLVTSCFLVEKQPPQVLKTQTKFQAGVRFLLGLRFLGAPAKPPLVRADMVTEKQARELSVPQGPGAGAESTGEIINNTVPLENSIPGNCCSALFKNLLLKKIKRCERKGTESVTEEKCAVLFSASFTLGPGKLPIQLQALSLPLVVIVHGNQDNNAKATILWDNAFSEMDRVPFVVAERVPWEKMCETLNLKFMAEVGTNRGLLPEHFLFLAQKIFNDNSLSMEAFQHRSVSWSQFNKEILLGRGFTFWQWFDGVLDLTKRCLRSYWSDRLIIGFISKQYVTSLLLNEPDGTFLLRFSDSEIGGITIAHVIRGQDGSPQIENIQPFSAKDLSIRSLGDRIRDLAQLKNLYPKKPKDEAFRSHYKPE
Kind of assay: STAT6 HTRF binding assay. The settings on record: HTRF binding, 0.15 nM biotinylated truncated STAT6 (123-632)-avi, 20 nM fluorescein-labeled probe. On the procedure: HTRF binding assays were performed using 0.15 nM biotinylated truncated STAT6 (123-632)-avi purified from E. coli, 1× Streptavidin-terbium (CisBio) prepared by mixing SA-Tb in PPI detection buffer (CisBio), 20 nM proprietary fluorescein-labeled probe, and test compounds in assay buffer consisting of 50 mM HEPES-Na pH 7.5, 100 mM NaCl, 1 mM EDTA, 2 mM DTT, 0.1% Tween-20 with a final volume of 20 uL. Compound stocks were dissolved at 10 mM in 100% DMSO and 11 point titration with 3 fold serial dilution was performed in white, opaque 384 well microplates. Reaction plates were incubated at room temperature for 30 minutes. Plates were centrifuged at low rpm for 5 mins, and the ratio of fluorescence intensities were measured at emission wavelengths for fluorescein acceptor (520 nm) and terbium donor (495 nm) on Envision Plate reader. % Inhibition was calculated from the 520/495 ratio generated by using proprietary positive control compound for 100% inhibition and DMSO only reactions for 0% inhibition. Data was processed and dose response curves were generated using GraphPad Prism to determine the concentration required for inhibiting 50% of the HTRF signal (IC50).
The letter codes for IC50 (μM) include: A (<0.1 μM); B (0.1-1 μM); C (>1-10 μM); D (>10-100 μM); E (>100 μM); and F (not tested).
For orientation: In TR-FRET formats the signal depends on donor and acceptor labels being close together.

Another assay deals with T3, STAT6-HiBiT (Homo sapiens, UniProt P42226).
T3 construct: Degradation of STAT6 in endogenously tagged STAT6-HiBiT A549 cells; endogenous in cells; host or cells: A549 (STAT6-HiBiT) knock-in cells
T3 sequence (P42226 1-847): T1 sequence (P42226 1-847)
Kind of assay: STAT6 HiBiT degradation in A549 (STAT6-HiBiT) cells. Type of assay: cell-based. The settings on record: 24 h. The method, then:
Degradation of STAT6 in endogenously tagged STAT6-HiBiT A549 cells was quantitatively measured using the Nano-Glo HiBiT Lytic Detection System (Promega, 3040). A549 (STAT6-HiBiT) cells were seeded in 384-well plates with a density of 1.25k cells per well in 20 μl fresh media. Compounds were then added to the assay plates using the Apricot S3 with a final top concentration of up to 10 uM in a 4-fold dilution series with total of 10 doses. The assay plates were then incubated for 24 hours at 37° C. under 5% CO2. At the assay endpoint, 20 μL of Nano-Glo HiBiT Lytic Reagent was added to each well and agitated on a plate shaker at 300 rpm for 10 minutes at room temperature. Luminescence was read on PHERAStar FSX Instrument (Is integration time). The data was analyzed by GraphPad Prism and the dose dependent STAT6 degradation was fit using the four-parameter inhibitor vs. response nonlinear regression.
The letter codes for DC50 (nM) include: A (<1 nM): B (1-10 nM); C (>10-100 nM); D (>100-1000 nM); E (>1000 nM); and F (not tested). The letter codes for Dmax (%) include: A (>90%); B (>70-90%); C (>50-70%); D (<50%); and E (not tested).
On the technique in general: The HiBiT peptide binds its large partner to form an active luciferase.

In the case of `CN(C)C(=O)c1cc2c(-c3ccc(C4CCN(c5ccc(C6CCC(=O)NC6=O)cc5F)CC4)cc3)cc(C3=CCCN(C(=O)CCn4ccnn4)C3)c(F)c2[nH]1` (centres unmarked) [Example I-1015, 6-(1-(3-(1H-1,2,3-triazol-1-yl)propanoyl)-1,2,5,6-tetrahydropyridin-3-yl)-4-(4-(1-(4-(2,6-dioxopiperidin-3-yl)-2-fluorophenyl)piperidin-4-yl)phenyl)-7-fluoro-N,N-dimethyl-1H-indole-2-carboxamide], the DC50 at STAT6 and at STAT6-HiBiT was less than 1 nM in each case. The values for the Dmax on STAT6 and at STAT6-HiBiT were 70 to 90% and greater than 90%, respectively. Moreover, the IC50 – broadly, the concentration that inhibits the measured activity by half – in assay [1] was less than 100 nM.
For the compound `COc1cc(N2CCN(c3ccc(-c4cc(C5=CCCN(C(=O)CCn6cccn6)C5)c(F)c5[nH]c(C(=O)N(C)C)cc45)c(F)c3F)CC2)c(F)cc1NC1CCC(=O)NC1=O` (centres unmarked) [Example I-677, 6-(1-(3-(1H-pyrazol-1-yl)propanoyl)-1,2,5,6-tetrahydropyridin-3-yl)-4-(4-(4-(4-((2,6-dioxopiperidin-3-yl)amino)-2-fluoro-5-methoxyphenyl)piperazin-1-yl)-2,3-difluorophenyl)-7-fluoro-N,N-dimethyl-1H-indole-2-carboxamide], on STAT6, the DC50 (in general, the concentration at which degradation of the target reaches its halfway point) was less than 1 nM and the Dmax (usually the greatest extent of degradation seen) was greater than 90%. Further, in assay [1], the IC50 was less than 100 nM. On STAT6-HiBiT, this compound showed a DC50 of less than 1 nM and a Dmax greater than 90%.
For the compound `CN(C)C(=O)c1cc2c(-c3ccc(C4CCN(c5ccc(C6CCC(=O)NC6=O)cc5F)CC4)cc3)cc(C3=CCCN(C(=O)CCn4cccn4)C3)c(F)c2[nH]1` (centres unmarked) [Example I-628, 6-(1-(3-(1H-pyrazol-1-yl)propanoyl)-1,2,5,6-tetrahydropyridin-3-yl)-4-(4-(I-(4-(2,6-dioxopiperidin-3-yl)-2-fluorophenyl)piperidin-4-yl)phenyl)-7-fluoro-N,N-dimethyl-1H-indole-2-carboxamide], on STAT6, the DC50 was less than 1 nM. For the same compound, the Dmax on STAT6 and on STAT6-HiBiT was greater than 90% in each case. The IC50 in assay [1] is less than 100 nM.
